Legend:
[1] = system: HCC-44 (Lung Adenocarcinoma); assay: Bliss excess, mean over the matrix (fraction); higher = more synergy
Outline: (§1)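 Bliss excess equals the observed combination effect minus the expected value EA + EB − EA·EB, where EA and EB are the effects of each agent alone. Combination Emax is the second-highest inhibition within the matrix. Inhibition was scaled from CellTiter-Glo 2.0 luminescence, with 0 set by vehicle wells and 1 by blank wells, after 72 hours of two-drug dosing of cells plated in 1536-well plates.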

[2] = system: HSC-3 (Oral Cavity Carcinoma); assay: as above
Outline: as §1

[3] = system: PC-14 (Lung Adenocarcinoma); assay: as above
Outline: as §1

[4] = system: RT4 (Bladder Carcinoma); assay: as above
Outline: as §1

[5] = system: SK-MM-2 (Plasma Cell Myeloma); assay: as above
Outline: as §1

[6] = system: HCC-44 (Lung Adenocarcinoma); assay: combination Emax (second highest fraction inhibited in the dose matrix, 72 h); higher = more inhibition; extreme values may be limits of the assay
Outline: as §1

## COc1nnc2ccc(N3CCC(c4ccc(OCCN5CCN(C)C(=O)[C@H]5C)cc4)CC3)nn12 [AZD5153] + C[C@@H]1COCCN1C2=NC(=NC(=C2)C3(CC3)[S@](=N)(=O)C)C4=C5C=CNC5=NC=C4 [AZD6738] (first compound max 1 µM, 7x7, partner max 10 µM)
[1]
  Bliss excess: 0.0139
[2]
  Bliss excess: -0.0181
[3]
  Bliss excess: 0.0294
[4]
  Bliss excess: 0.0449
[5]
  Bliss excess: -0.0831
[6]
  combination Emax: 0.726

## COc1nnc2ccc(N3CCC(c4ccc(OCCN5CCN(C)C(=O)[C@H]5C)cc4)CC3)nn12 [AZD5153] + CC1(C)CCC(CN2CCN(c3ccc(C(=O)NS(=O)(=O)c4ccc(NCC5CCOCC5)c([N+](=O)[O-])c4)c(Oc4cnc5[nH]ccc5c4)c3)CC2)=C(c2ccc(Cl)cc2)C1 [Venetoclax] (first compound max 1 µM, 7x7, partner max 1 µM)
[1]
  Bliss excess: -0.0395
[2]
  Bliss excess: -0.0846
[3]
  Bliss excess: -0.03
[4]
  Bliss excess: -0.019
[5]
  Bliss excess: -0.0111
[6]
  combination Emax: 0.615

## Cc1nc(Nc2ncc(C(=O)Nc3c(C)cccc3Cl)s2)cc(N2CCN(CCO)CC2)n1 [Dasatinib] + CC(=O)Nc1cccc(-n2c(=O)n(C3CC3)c(=O)c3c(Nc4ccc(I)cc4F)n(C)c(=O)c(C)c32)c1 [Trametinib] (first compound max 2 µM, 7x7, partner max 1 µM)
[1]
  Bliss excess: 0.0359
[2]
  Bliss excess: -0.0444
[3]
  Bliss excess: 0.0079
[4]
  Bliss excess: -0.0057
[5]
  Bliss excess: -0.0157
[6]
  combination Emax: 0.955

## CS(=O)(=O)CCNCc1ccc(-c2ccc3ncnc(Nc4ccc(OCc5cccc(F)c5)c(Cl)c4)c3c2)o1 [Lapatinib] + C[C@@H](Oc1cc(-c2cnn(C3CCNCC3)c2)cnc1N)c1c(Cl)ccc(F)c1Cl [Crizotinib] (first compound max 10 µM, 7x7, partner max 10 µM)
[1]
  Bliss excess: -0.0384
[2]
  Bliss excess: -0.0395
[3]
  Bliss excess: -0.028
[4]
  Bliss excess: -0.0511
[5]
  Bliss excess: -0.0207
[6]
  combination Emax: 0.939

## Cn1cnc2c(F)c(Nc3ccc(Br)cc3Cl)c(C(=O)NOCCO)cc21 [Selumetinib] + C[C@@H]1COCCN1C2=NC(=NC(=C2)C3(CC3)[S@](=N)(=O)C)C4=C5C=CNC5=NC=C4 [AZD6738] (first compound max 10 µM, 7x7, partner max 10 µM)
[1]
  Bliss excess: -0.034
[2]
  Bliss excess: 0.0049
[3]
  Bliss excess: -0.0022
[4]
  Bliss excess: -0.0036
[5]
  Bliss excess: -0.0604
[6]
  combination Emax: 0.503

## Cn1cnc2c(F)c(Nc3ccc(Br)cc3Cl)c(C(=O)NOCCO)cc21 [Selumetinib] + C=CCn1c(=O)c2cnc(Nc3ccc(N4CCN(C)CC4)cc3)nc2n1-c1cccc(C(C)(C)O)n1 [AZD1775] (first compound max 10 µM, partner max 1 µM)
[1]
  Bliss excess: -0.0088
[2]
  Bliss excess: -0.0355
[3]
  Bliss excess: -0.0475
[4]
  Bliss excess: -0.0127
[5]
  Bliss excess: -0.0198
[6]
  combination Emax: 0.64

## CC(=O)c1c(C)c2cnc(Nc3ccc(N4CCNCC4)cn3)nc2n(C2CCCC2)c1=O [Palbociclib] + CC1(C)CCC(CN2CCN(c3ccc(C(=O)NS(=O)(=O)c4ccc(NCC5CCOCC5)c([N+](=O)[O-])c4)c(Oc4cnc5[nH]ccc5c4)c3)CC2)=C(c2ccc(Cl)cc2)C1 [Venetoclax] (first compound max 10 µM, 7x7, partner max 1 µM)
[1]
  Bliss excess: -0.0374
[2]
  Bliss excess: 0.0148
[3]
  Bliss excess: -0.0198
[4]
  Bliss excess: 0.0032
[5]
  Bliss excess: -0.0265
[6]
  combination Emax: 0.0628

## NC1(C(=O)N[C@@H](CCO)c2ccc(Cl)cc2)CCN(c2ncnc3[nH]ccc23)CC1 [Capivasertib] + CCN(CCO)CCCOc1ccc2c(Nc3cc(CC(=O)Nc4cccc(F)c4)[nH]n3)ncnc2c1 [AZD2811] (first compound max 10 µM, 7x7, partner max 1 µM)
[1]
  Bliss excess: -0.0388
[2]
  Bliss excess: -0.0374
[3]
  Bliss excess: 0.028
[4]
  Bliss excess: -0.0039
[5]
  Bliss excess: -0.0412
[6]
  combination Emax: 0.663

## CC(=O)c1c(C)c2cnc(Nc3ccc(N4CCNCC4)cn3)nc2n(C2CCCC2)c1=O [Palbociclib] + Cn1cnc2c(F)c(Nc3ccc(Br)cc3Cl)c(C(=O)NOCCO)cc21 [Selumetinib] (first compound max 10 µM, 7x7, partner max 10 µM)
[1]
  Bliss excess: 0.0332
[2]
  Bliss excess: -0.0418
[3]
  Bliss excess: 0.0408
[4]
  Bliss excess: 0.0209
[5]
  Bliss excess: -0.021
[6]
  combination Emax: 0.426

## NC1(C(=O)N[C@@H](CCO)c2ccc(Cl)cc2)CCN(c2ncnc3[nH]ccc23)CC1 [Capivasertib] + CC(=O)c1c(C)c2cnc(Nc3ccc(N4CCNCC4)cn3)nc2n(C2CCCC2)c1=O [Palbociclib] (first compound max 10 µM, 7x7, partner max 10 µM)
[1]
  Bliss excess: -0.0161
[2]
  Bliss excess: -0.0076
[3]
  Bliss excess: 0.0388
[4]
  Bliss excess: 0.0114
[5]
  Bliss excess: -0.0005
[6]
  combination Emax: 0.641

Source: the supplement of paper PMC11061612
